Assay: Human HepG2 cell viability assay in 384 well format
Assay type: toxicity, cell-based
Design: dose 125 nL, time 70.5 hour; concentration not given beside the values
Conditions: HepG2 cells, read-out: Inhibition

| Structure (SMILES) | cytotoxicity at 70.5 h [%] |
| --- | --- |
| Cc1cc2ncn(C(=O)N3CCCCC3)c2cc1C | -7.84 |
| CCCC(=O)N1CCCC1(C)c1nc(C)no1 (stereo not drawn) | -14.9 |
| COc1ccc(CNC(Cc2ccsc2)c2ncccc2C)cc1OC (stereo not drawn) | -4.5 |
| O=c1c(CN2CC3CCCN3C[C@@H]2CCO)coc2ccc(Cl)cc12 (stereo partly drawn) | -6.6 |
| CC(=O)N1CCN(c2cnccn2)CC(CO)C1 (stereo not drawn) | -5.92 |
| CC(C)N1CCCC1c1cc(CCO)[nH]n1 (stereo not drawn) | -9.45 |
| c1ccc2ncc(CC3CCNCC3)cc2c1 | 13.4 |
| COc1ccc(OCCc2cc(C3CNCCO3)nn2C)cc1 (stereo not drawn) | 12.2 |
| CCCc1nnsc1C(=O)N1CCCC1(C)C(=O)N1CCOCC1 (stereo not drawn) | -9.09 |
| CN1CCCC1c1cncc(C(=O)NCCN2CCCC2)n1 (stereo not drawn) | -14.2 |
| CNc1ncc(C(=O)N2CCOC(C(=O)NC3CCCC3)C2)cn1 (stereo not drawn) | -9.73 |
| COCCC(=O)N1C[C@@H](c2cccc(OC)c2)[C@@]2(CCCCC(=O)N2)C1 | -14.8 |
| COCC(=O)N1C[C@@H](c2cccc(OC)c2)[C@@]2(CCCCC(=O)N2)C1 | -10.3 |
| Oc1cc(C2CCCCN2Cc2ccsc2)nc(-c2ccncc2)n1 (stereo not drawn) | -9.16 |
| CCNC(=O)Nc1ncc(-c2cccnc2)s1 | -6.64 |
| CNC(=O)C1CN(Cc2cc(C)on2)CCN(C2CCOCC2)C1 (stereo not drawn) | -7.77 |
| c1cc(CCNc2ccc(CC3CCNC3)cn2)ccn1 (stereo not drawn) | -4.08 |
| CNC(=O)c1ccc(C2CN(CC(=O)N(C)C)CCO2)nc1 (stereo not drawn) | -5.57 |
| CNC(=O)c1ccc(C2CN(Cc3ccc(F)cc3)CCO2)nc1 (stereo not drawn) | -1.99 |
| CCN1CCC(N2CCC(c3nc(C)cc(C)n3)C2)CC1 (stereo not drawn) | -2.1 |
| O=C(O)c1ccccc1-n1cnc(CN2CCCc3ccccc32)c1 | -2.75 |
| c1cc2cc[nH]c2c(CC2CN(Cc3cscn3)C2)n1 | -3.59 |
| COCC(=O)NC(CC(C)C)c1nc2cccnc2n1C (stereo not drawn) | 20.7 |
| Cc1cc2nccc(C3CCCN(C(=O)c4ccccc4F)C3)n2n1 (stereo not drawn) | -1.93 |

| Structure (SMILES) | cytotoxicity at 70.5 h [%] |
| --- | --- |
| O=C(Cc1ccc(F)c(F)c1)NC1COc2ccccc2C1=O (stereo not drawn) | -0.695 |
| CC(O)CN1CCN(Cc2cccc(C#N)c2)CC1 (stereo not drawn) | -4.63 |
| Cc1nn(C)c(C)c1NC(=O)CNC(c1ccccc1)C1CCC1 (stereo not drawn) | -4.47 |
| Cc1cnn(CCNCc2nccn2Cc2ccccc2)c1 | 1.16 |
| COC(=O)CC(NC(=O)c1cccc(N2CCCC2=O)c1)C(=O)OC (stereo not drawn) | 0.259 |
| COCCNc1nc(-c2ccc(S(=O)(=O)N3CCCCC3)cc2)cs1 | 0.097 |
| Cn1cnnc1S(=O)(=O)Cc1cc(Cl)c2c(c1)OCCO2 | -1.41 |
| COC(=O)CC(NC(=O)c1cccc(CS(C)(=O)=O)c1)c1cccs1 (stereo not drawn) | -4.71 |
| Cc1ccc(-c2nc(CC(=O)N3CCCC(NC(=O)C(C)C)C3)cs2)o1 (stereo not drawn) | -4.05 |
| Cc1ccc(-c2nc(CC(=O)NCC(C)N3CCOCC3)cs2)o1 (stereo not drawn) | -3.4 |
| Cn1ccnc1Sc1ncc(C(=O)N2CCCCC2)cc1Cl | -4.57 |
| CCNC(=O)c1cnc(Sc2nccn2C)c(Cl)c1 | -2.03 |
| O=C(c1cn(-c2ccc(C(F)(F)F)cn2)nn1)N1CCCCCC1 | -3.98 |
| CC1CCN(C(=O)c2cn(-c3ccc(C(F)(F)F)cn3)nn2)CC1 | -0.268 |
| CCc1ccc2c(c1)C(CCNC(=O)CSC(F)(F)F)C(=O)N2 (stereo not drawn) | -1.42 |
| Cc1ccccc1CNc1ccc(S(N)(=O)=O)c(C(F)(F)F)c1 | 4.82 |
| Cc1ccc(C(=O)N2CCCC(N(C)C(=O)OC(C)(C)C)C2)o1 (stereo not drawn) | 2.04 |
| CC(c1ccccc1F)N(C(=O)CSCC(N)=O)C1CC1 (stereo not drawn) | 5.29 |
| Cc1cc(NC(=O)c2ccc(N3CCOCC3)cc2)[nH]n1 | -1.56 |
| Cc1nc(CNC(=O)CCCc2cccs2)no1 | -5.14 |
| CC(=O)Nc1cc(F)c(S(=O)(=O)N(C)CC2CCC2)c(F)c1 | -0.0857 |
| CCOc1cccc(CNC(=O)C(C)(C)C#N)c1OC(F)F | -2.64 |
| CN(C(=O)OC(C)(C)C)C1CCN(C(=O)c2ccc(Cl)o2)C1 (stereo not drawn) | -3.64 |
| C=C(C)CN(CC)S(=O)(=O)c1c(F)cc(NC(C)=O)cc1F | -3.3 |

| Structure (SMILES) | cytotoxicity at 70.5 h [%] |
| --- | --- |
| COCCNc1nc(-c2ccc(S(=O)(=O)N3CCCCCC3)cc2)cs1 | -5.83 |
| CC(C)N1CCCC(CNC(=O)Cc2csc(-c3cccnc3)n2)C1 (stereo not drawn) | -0.239 |
| CC(C#N)CN(C)Cc1c(Cl)ccc2cccnc12 (stereo not drawn) | 23 |
| Cc1nc(-c2cccs2)ccc1C(=O)N1CCN(CC(C)O)CC1 (stereo not drawn) | -2.84 |
| CCn1cc(NC(=O)N2CCN(CCSc3ccccc3)CC2)cn1 | -7.68 |
| O=C(CSc1nnc(N2CCCC2)s1)NC(=O)Nc1ccccc1 | -5.54 |
| Cc1nnc2n1CCN(C(=O)c1ccc(Cn3cccc3)cc1)C2 | -7.82 |
| Cc1ccc(NC(=O)N2CCC(CO)(Nc3ccccc3)CC2)cc1 | 17.1 |
| Cc1cccc(NC(=O)N2CCC(CO)(Nc3ccccc3)CC2)c1 | -5.03 |
| O=C1NCCN1C1CCN(CC(O)c2ccccc2F)CC1 (stereo not drawn) | -7.23 |
| Cc1ncccc1C(=O)Nc1cccc(C[S+](C)[O-])c1C (stereo not drawn) | 0.697 |
| Cc1cc(C)c2ncc(C#N)c(NC3CCN(CC(N)=O)CC3)c2c1 | 1.44 |
| CC(NC(=O)N1CCS(=O)(=O)CC1)c1c(F)cccc1Cl (stereo not drawn) | -4.16 |
| O=C(Cc1c[nH]c2ncccc12)NCC(O)c1ccccc1F (stereo not drawn) | 15.1 |
| CC(C)(CO)N1CCN(S(=O)(=O)CCCF)CC1 | -8.05 |
| CN(CCOc1cccc(F)c1)CC(=O)Nc1ccncc1 | -10.9 |
| CN(Cc1nnc(C2CC2)o1)Cc1ccccc1-c1ccccc1 | -9.25 |
| CN1CCN(C2CCN(CC(O)c3ccccc3)CC2)C1=O (stereo not drawn) | 4.73 |
| Cc1cc(CN2CCCN(c3ccc(C#N)cc3)CC2)no1 | -7.74 |
| Cc1ccc(S(=O)(=O)N[C@H](CO)C(C)C)cc1N(C)C | -4.66 |
| Cc1nccn1-c1ccc(NS(=O)(=O)c2cnn(C(C)C)c2)cn1 | -2.54 |
| N#Cc1ncn(Cc2c(F)cccc2Cl)n1 | -5.34 |
| CNc1nnc(SCc2nnc(C(C)(C)C)o2)s1 | 15.4 |
| CCNc1nnc(SCc2nnc(C(C)(C)C)o2)s1 | -8.88 |

| Structure (SMILES) | cytotoxicity at 70.5 h [%] |
| --- | --- |
| O=C(CS(=O)(=O)Cc1csc(-c2ccc(F)cc2)n1)NCC1CC1 | -6.8 |
| O=C(Nc1cccnc1N1CCSCC1)c1ccc2c(c1)OCO2 | -4.23 |
| NC(=O)CS(=O)(=O)Cc1csc(-c2ccc(F)cc2)n1 | 13.6 |
| CS(=O)(=O)c1cc(C(=O)NS(=O)(=O)Cc2ccc(F)cc2)ccc1Cl | -3.9 |
| CC(C)C(=O)Nc1cccc(OCC(=O)NCc2ccccc2F)c1 | -5.29 |
| OCCOc1cc(F)ccc1NCc1ccc(F)c(F)c1 | -2.79 |
| Cc1nnc2n1CCN(C(=O)C1CCN(Cc3ccccc3)CC1)C2 | 14.2 |
| CN(CC(N)=O)Cc1csc(-c2ccc(F)cc2)n1 | -0.0734 |
| Cc1nccn1-c1ccc(NS(=O)(=O)c2cnn(C)c2)cn1 | -4.84 |
| CNC(=O)CN(C)C1CCN(c2ccc(Cl)cc2)CC1 | 2.05 |
| O=C(NS(=O)(=O)c1ccc(F)c(F)c1)c1cscn1 | 17.8 |
| CC(C)CCc1noc(CN2CCCC(CNS(N)(=O)=O)C2)n1 (stereo not drawn) | -1.48 |
| CC(C)Cc1noc(CN2CCCC(CNS(N)(=O)=O)C2)n1 (stereo not drawn) | -3.24 |
| CCc1nc(CN2CCCN(C(=O)Cc3cccs3)CC2)cs1 | -6.45 |
| CCOc1ccc(CNC2CCCN(c3cccnn3)C2)cc1OC (stereo not drawn) | 4.96 |
| CCCNC(=O)CN(C)C1CCN(c2ccc(Cl)cc2)CC1 | -6.78 |
| COc1cc2c(nn1)CCN(Cc1noc(CC(C)C)n1)C2 | -4.19 |
| CC(C)Oc1cccc(CN(C)C(=O)Nc2cccn(C)c2=O)c1 | 2.82 |
| O=C(CCC1CCCO1)NCCN1CCCCC1 (stereo not drawn) | -3.64 |
| COCCNC(=O)N1CCOCC1c1c(C)nn(C)c1C (stereo not drawn) | -1.43 |
| O=S(=O)(Cc1nc(C2CC2)no1)c1cc(F)ccc1F | -12.2 |
| O=C(NCc1ccc(N2CCSCC2)cc1)NCc1cc[nH]n1 | -10.4 |
| O=C(Nc1cccc(F)c1)NC1CCN(Cc2ccncc2)CC1 | -15.3 |
| CN(C)c1ccc(C(=O)Nc2cnn(Cc3ccccn3)c2)cc1 | -9.41 |

| Structure (SMILES) | cytotoxicity at 70.5 h [%] |
| --- | --- |
| CC(Oc1cccc(Cl)c1)C(=O)Nc1cnn(CCN(C)C)c1 (stereo not drawn) | 23.7 |
| CN(C)c1cccc(C(=O)Nc2cnn(CC(N)=O)c2)c1 | -16.4 |
| Cc1ccc(-c2nc(C(=O)N(C)CC(=O)N3CCCC3)cs2)c(C)c1 | -4.38 |
| CN(C)c1cccc(C(=O)Nc2cnn(Cc3ccccn3)c2)c1 | -9.4 |
| CCCN(CCC)C(=O)CN1CCCC1C(=O)N(C)C (stereo not drawn) | -5.85 |
| CC(=O)NCc1ccc(C(=O)N2CCCc3c(F)ccc(C)c32)cc1 | -8.8 |
| CN(c1ncc(S(N)(=O)=O)s1)C1CCC1 | -9.06 |
| CCS(=O)(=O)NCC(=O)N(C1CC1)C1Cc2ccccc2C1 | -9.21 |
| Cc1nn(C)c(C)c1C1COCCN1C(=O)CC(C)(C)C (stereo not drawn) | 24.2 |
| Cc1noc(CN(C)c2ccccc2)n1 | -13.6 |
| COc1cccc(-c2nc(CNCCc3cccnc3)cs2)c1 | -19.3 |
| CCN1CC(CN(C)c2cc(C)nc(N)n2)Oc2ccccc21 (stereo not drawn) | 17.6 |
| CC(=O)c1cccc(OC(C)C(=O)Nc2cnn(CCN(C)C)c2)c1 (stereo not drawn) | -12.3 |
| CCSc1cc(C(=O)N(Cc2cnn(C)c2)C(C)C)ccn1 | -11.4 |
| CCC(CNC(=O)COC)Oc1cccc(F)c1 (stereo not drawn) | 14.9 |
| COc1ccc(C)cc1C(C)NS(=O)(=O)c1ccc2c(c1)CCC(=O)N2 (stereo not drawn) | 8.83 |
| CCN(CC1CCOC1)C(=O)Cn1nnn(-c2cccs2)c1=O (stereo not drawn) | -15.9 |
| O=C(Cn1nnn(-c2cccs2)c1=O)NCC1CCOC1 (stereo not drawn) | 11.8 |
| Cc1nc(Nc2nncs2)cc(C2CCCN2)n1 (stereo not drawn) | -4.59 |
| OC1CCN(c2cncc(CCC3CCCN3)n2)CC1 (stereo not drawn) | -4.54 |
| COc1cccc2c(C)c(C(=O)N3CCNCC3C(N)=O)[nH]c12 (stereo not drawn) | -7.8 |
| FC(F)(F)c1ccc(-c2cnc(C3CCCN3)cn2)cc1 (stereo not drawn) | 13.6 |
